The values that follow come from patent US9517232B2, “Compounds for treatment of alzheimer's disease” (Medi Synergics, LLC, priority 2013, dated 2016).

Structures are written as SMILES. Read-outs that look alike come from different tables or passages of the source.

Test [1] deals with T1, M4 (Homo sapiens, UniProt P08173).
T1 sequence (P08173 1-479): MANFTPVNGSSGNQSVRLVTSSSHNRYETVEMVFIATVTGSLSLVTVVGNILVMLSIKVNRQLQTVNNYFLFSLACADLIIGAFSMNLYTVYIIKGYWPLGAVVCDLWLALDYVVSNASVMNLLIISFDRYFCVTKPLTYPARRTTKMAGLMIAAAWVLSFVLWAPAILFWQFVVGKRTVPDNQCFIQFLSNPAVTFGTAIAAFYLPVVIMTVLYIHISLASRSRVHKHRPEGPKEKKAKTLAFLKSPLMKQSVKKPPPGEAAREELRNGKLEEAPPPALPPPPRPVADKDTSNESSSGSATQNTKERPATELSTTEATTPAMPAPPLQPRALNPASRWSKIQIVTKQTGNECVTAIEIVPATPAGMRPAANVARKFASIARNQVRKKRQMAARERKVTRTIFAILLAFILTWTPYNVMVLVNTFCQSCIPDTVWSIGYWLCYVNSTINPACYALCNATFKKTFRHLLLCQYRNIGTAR
Particulars: Data from Poster, CNS Summit (2013); cited from earlier work.

Test [2] addresses T2, M2 (Homo sapiens, UniProt P08172).
T2 sequence (P08172 1-466): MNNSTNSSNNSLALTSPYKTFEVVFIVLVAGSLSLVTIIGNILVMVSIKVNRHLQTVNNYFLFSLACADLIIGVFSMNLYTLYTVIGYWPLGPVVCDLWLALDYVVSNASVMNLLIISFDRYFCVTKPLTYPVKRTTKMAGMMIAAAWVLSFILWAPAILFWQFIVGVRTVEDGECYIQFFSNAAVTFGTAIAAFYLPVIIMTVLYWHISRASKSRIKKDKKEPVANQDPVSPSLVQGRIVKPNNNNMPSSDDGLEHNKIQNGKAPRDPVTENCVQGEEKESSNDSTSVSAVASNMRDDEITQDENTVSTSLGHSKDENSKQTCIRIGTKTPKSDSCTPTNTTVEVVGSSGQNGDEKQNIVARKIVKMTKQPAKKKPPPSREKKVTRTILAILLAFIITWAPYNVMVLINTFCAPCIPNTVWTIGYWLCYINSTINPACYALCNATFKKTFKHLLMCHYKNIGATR
Particulars: Data from Poster, CNS Summit (2013); cited from earlier work.

In test [3] the target is M3 (Homo sapiens, UniProt P20309). To be noted: Data from Poster, CNS Summit (2013); cited from earlier work.
Sequence of M3 (P20309 whole entry): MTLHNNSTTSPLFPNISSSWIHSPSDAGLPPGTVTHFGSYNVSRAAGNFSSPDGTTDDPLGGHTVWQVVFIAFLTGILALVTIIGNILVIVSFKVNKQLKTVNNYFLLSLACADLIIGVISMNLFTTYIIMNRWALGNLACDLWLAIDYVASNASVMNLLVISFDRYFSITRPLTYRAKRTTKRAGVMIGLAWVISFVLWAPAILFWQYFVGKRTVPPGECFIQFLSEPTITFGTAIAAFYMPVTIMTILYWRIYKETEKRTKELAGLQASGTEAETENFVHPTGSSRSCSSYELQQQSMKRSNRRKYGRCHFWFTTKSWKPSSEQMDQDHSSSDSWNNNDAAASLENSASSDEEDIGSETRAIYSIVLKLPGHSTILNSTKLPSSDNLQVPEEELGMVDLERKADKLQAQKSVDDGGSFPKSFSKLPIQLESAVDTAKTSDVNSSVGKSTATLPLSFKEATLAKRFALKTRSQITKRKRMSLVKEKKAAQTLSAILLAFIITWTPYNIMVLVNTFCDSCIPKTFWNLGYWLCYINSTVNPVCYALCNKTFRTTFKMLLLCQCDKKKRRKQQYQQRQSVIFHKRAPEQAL
The target in test [4] is T3, Sigma1 (Homo sapiens, UniProt Q99720). Particulars: Data from Poster, CNS Summit (2013); cited from earlier work.
T3 sequence (Q99720 whole entry): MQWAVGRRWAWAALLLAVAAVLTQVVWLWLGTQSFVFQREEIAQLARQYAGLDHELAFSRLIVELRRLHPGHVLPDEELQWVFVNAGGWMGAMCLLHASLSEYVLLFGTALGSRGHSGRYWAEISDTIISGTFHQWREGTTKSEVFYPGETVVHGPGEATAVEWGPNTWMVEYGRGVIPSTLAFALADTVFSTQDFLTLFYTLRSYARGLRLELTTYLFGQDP
Test [5] addresses T4, M1 (Homo sapiens, UniProt P11229).
T4 sequence (P11229 1-460): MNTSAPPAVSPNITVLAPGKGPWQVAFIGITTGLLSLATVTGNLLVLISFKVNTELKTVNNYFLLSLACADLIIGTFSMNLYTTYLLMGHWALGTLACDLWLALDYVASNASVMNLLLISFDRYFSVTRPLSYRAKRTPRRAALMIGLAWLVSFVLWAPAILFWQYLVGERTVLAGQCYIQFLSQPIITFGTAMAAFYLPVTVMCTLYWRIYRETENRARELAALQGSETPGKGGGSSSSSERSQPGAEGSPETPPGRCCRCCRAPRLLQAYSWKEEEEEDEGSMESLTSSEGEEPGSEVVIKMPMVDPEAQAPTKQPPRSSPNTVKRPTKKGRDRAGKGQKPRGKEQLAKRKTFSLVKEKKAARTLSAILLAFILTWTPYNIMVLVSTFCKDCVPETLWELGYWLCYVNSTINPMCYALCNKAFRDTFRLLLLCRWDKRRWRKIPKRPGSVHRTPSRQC
To be noted: Data from Poster, CNS Summit (2013); cited from earlier work.

Test [6] deals with T3, Sigma1. Nature of the test: Sigma-1 receptor Ki determination (NIMH PDSP). Format: binding. The method, then: (§1) The compounds from the above Examples were tested for Sigma-1 and muscarinic M1-M5) activities. Ki determinations were generously provided by the National Institute of Mental Health's Psychoactive Drug Screening Program (PDSP), Contract #HHSN-271-2013-00017-C (NIMH PDSP). The NIMH PDSP is directed by Bryan L. Roth M D, PhD at the University of North Carolina at Chapel Hill and Project Officer Jamie Driscoll at NIMH, Bethesda Md., USA. Procedures employed by the PDSP are described in the NIMH PDSP Assay Protocol Book, Version II and follow published literature protocols.

In test [7] the target is T4, M1. Nature of the test: Muscarinic M1 receptor Ki determination (NIMH PDSP). The class given is binding. As for the experimental part: as §1
Test [8] concerns the target T5, M5 (Homo sapiens, UniProt P08912).
T5 sequence (P08912 1-532): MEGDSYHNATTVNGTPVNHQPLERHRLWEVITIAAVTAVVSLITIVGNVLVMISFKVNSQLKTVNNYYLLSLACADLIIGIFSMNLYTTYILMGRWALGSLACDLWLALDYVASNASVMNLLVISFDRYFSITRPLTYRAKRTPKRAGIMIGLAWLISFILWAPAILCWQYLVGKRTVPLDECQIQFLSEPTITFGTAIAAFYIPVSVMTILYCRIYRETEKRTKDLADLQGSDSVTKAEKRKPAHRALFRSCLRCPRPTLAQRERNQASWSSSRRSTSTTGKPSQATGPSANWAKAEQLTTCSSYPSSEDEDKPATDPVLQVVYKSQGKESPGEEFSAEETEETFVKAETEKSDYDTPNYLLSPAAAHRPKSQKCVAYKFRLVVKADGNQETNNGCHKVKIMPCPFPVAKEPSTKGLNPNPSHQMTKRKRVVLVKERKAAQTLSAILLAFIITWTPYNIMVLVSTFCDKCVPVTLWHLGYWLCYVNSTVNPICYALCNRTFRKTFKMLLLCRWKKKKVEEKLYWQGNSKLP
Nature of the test: Muscarinic M5 receptor Ki determination (NIMH PDSP). The class given is binding. The method, then:
as §1

Test [9] concerns the target T2, M2. The test can be described thus: Muscarinic M2 receptor Ki determination (NIMH PDSP). The class given is binding. The method, then: as §1

For `CN(C)CC1CCOC1(c1ccccc1)c1ccccc1` (stereo not drawn) [ANAVEX 2-73], the Ki (commonly the equilibrium dissociation constant of an inhibitor or competing ligand from its target) in test [1] is 5.19 µM; in test [2] it was 3.97 µM; in [3] it was 5.33 µM; in test [4], 0.86 µM; in test [5], 3.32 µM.

`CN(CCCC1(c2ccc(F)cc2)OCc2cc(C#N)ccc21)C1=NCCCC1` (stereo not drawn) [Example 3, 1-(4-fluorophenyl)-1-{3-[methyl(3,4,5,6-tetrahydropyridin-2-yl)amino]propyl}-1,3-dihydro-2-benzo-furan-5-carbonitrile]: the Ki in test [6] is 0.23 µM; in test [7], 1.5 µM; in test [8], 1.16 µM; in test [9] it was 2.57 µM.
